Test results reported in patent US20250381242A1 (INVAIO SCIENCES, INC., priority 2024, published 2025).
Positions of bridges follow the written chain, without caps; N, C: chain ends. Residues, ends and D or L forms follow the SMILES beside them. No end group written: not given here.

How the values were obtained:
A. tumefaciens = settings: 24 h, 10 μM
X. citri = assay: Bacterial growth inhibition by OD600 absorbance, X. citri; type: cell-based, X. citri subsp. citri (ATCC 49118); settings: peptide 10 μM, 24 hours at 30° C., OD 600 nm
Experimental: (§1) Antimicrobial activity of antimicrobial peptides was tested against the agricultural microbial pests A. tumefaciens, E. amylovora, E. coli, and X. citri, using OD absorbance measurement to detect bacterial growth.
(§2) Antimicrobial peptides were synthesized using solid phase peptide synthesis method and resuspended in 10% DMSO to a 1 mM stock concentration. The stock solution was aliquoted in cryovials and stored at −80° C.
(§3) An aliquot of 198 μl of the bacterial culture was added to each well in a 96-well plate and 2 μl of a 1 mM peptide stock solution was added to each well, for a final treatment concentration of 10 μM of a given peptide. Media only wells were included to control for contamination. The positive controls were 50 μg/ml oxytetracycline hydrochloride and 500 μg/ml streptomycin sulfate. A 0.1% DMSO treatment was included as a negative control.
(§4) An initial absorbance reading of the bacterial suspensions was taken at 600 nm. Then, the bacteria were grown in an incubator at 30° C. (A. tumefaciens, E. amylovora, X. citri) or 37° C. (E. coli) for 24 hours, after which the final absorbance reading was measured. Using the initial and final absorbance reading compared to negative and positive controls, the percent inhibition of the bacterial strain by given peptide treatment was determined.

E. coli = assay: Bacterial growth inhibition by OD600 absorbance, E. coli; type: cell-based, E. coli (DH5-alpha); settings: peptide 10 μM, 24 hours at 37° C., OD 600 nm
Experimental: as §1, §2, §3, §4

E. amylovora = settings: 24 h, 10 μM

| Compound | growth inhibition, A. tumefaciens (A. tumefaciens) [%] | growth inhibition, X. citri (X. citri) [%] | growth inhibition, E. coli (E. coli) [%] | growth inhibition, E. amylovora (E. amylovora) [%] |
| --- | --- | --- | --- | --- |
| KLKKIWWIKVKK [compound 116] | <90 | <90 | <90 | <90 |
| INLKKLAARIKKKI [compound 112] | <90 | 100.00 | <90 | <90 |
| KLKKLLKKWLKLLKKLLK [compound 68] | <90 | <90 | 100.00 | <90 |
| GWGDTFLKTMAKIAKVGPKLLHS [compound 48] | <90 | <90 | <90 | <90 |
| RLSRIVVIRVSR [compound 132] | <90 | <90 | <90 | <90 |
| KVVKQWPIGKVVKKVVKKVVK [compound 58] | <90 | <90 | <90 | <90 |
| LKKWWKTSKGLLGGLLGKVTSVIK [compound 34] | 100.00 | 100.00 | 100.00 | 100.00 |
| KKLTLWLTLKK [compound 140] | <90 | <90 | <90 | <90 |
| KKLLKLKLKWKK [compound 121] | <90 | 100.00 | <90 | <90 |
| C[C@@H](O)[C@H](NC(=O)[C@H](CS)NC(=O)[C@@H](N)Cc1c[nH]c2ccccc12)C(=O)N[C@@H](Cc1c[nH]c2ccccc12)C(=O)N[C@@H](CCCCN)C(=O)NCC(=O)N[C@@H](CCC(N)=O)C(=O)N1CCC[C@H]1C(=O)N[C@@H](CS)C(=O)N[C@@H](Cc1c[nH]c2ccccc12)C(=O)O [compound 3] (H-WCTWKGQPCW-OH; N-terminus and C-terminus assumed) | <90 |  |  | <90 |
| CC[C@H](C)[C@H](NC(=O)CNC(=O)[C@@H]1CCCN1C(=O)CNC(=O)[C@H](CC(C)C)NC(=O)[C@H](CC(N)=O)NC(=O)[C@H](C)NC(=O)[C@H](Cc1ccccc1)NC(=O)[C@H](CC(N)=O)NC(=O)[C@H](C)NC(=O)[C@H](CCCNC(=N)N)NC(=O)[C@H](Cc1ccccc1)NC(=O)[C@H](C)NC(=O)[C@@H](NC(=O)[C@H](CCCNC(=N)N)NC(=O)[C@H](Cc1c[nH]c2ccccc12)NC(=O)[C@H](Cc1ccc(O)cc1)NC(=O)[C@H](CC(=O)O)NC(=O)[C@H](C)NC(=O)[C@H](CC(C)C)NC(=O)CN)[C@@H](C)O)C(=O)N[C@@H](CCCNC(=N)N)C(=O)N[C@@H](CS)C(=O)N[C@@H](CCCCN)C(=O)N[C@@H](CO)C(=O)N[C@@H](C)C(=O)N[C@@H](CCCNC(=N)N)C(=O)N[C@@H](CS)C(=O)O [compound 18] (H-GLADYWRTAFRANFANLGPGIRCKSARC-OH; N-terminus and C-terminus assumed) | <90 |  |  | <90 |
| DCLSGRYKGPCAVWDNETCRRVCKEEGRSSGHCSPSLKCWCEGC (disulfide 2-44, 11-33, 19-39, 23-41) [compound 145] | <90 |  |  | <90 |
